Experimental data reported in patent publication US3984555A, “Therapeutic piperazinylalkyl-quinazolone-(4)-derivatives” (Byk Gulden Lomberg Chemische Fabrik Gesellschaft mit …, priority 1970, dated 1976).

Legend:
[1] = tested on: blood pressure and cardiac frequency of the narcotised cat; assay: Influence on the blood pressure and cardiac frequency of the narcotised cat (Table I); assay type: in vivo; set-up: unit not given here; conditions: for Blood pressure lowered by 30% by: dose lowering blood pressure by 30%; for Blood pressure lowered by 50% by: dose lowering blood pressure by 50%
Source text: (§1) Influence on the blood pressure and cardiac frequency and also
(§2) on the carotid sinus reflex of the narcotised cat
(§3) Table I provides a general summary of the influence of different piperazinylquinazolones on the blood pressure, the cardiac frequency and the carotid sinus reflex of the narcotised cat.

carotid sinus reflex = assay: Inhibition of the carotid sinus reflex of the narcotised cat (Table I); assay type: in vivo; set-up: unit not given here; conditions: for Inhibition of the carotid sinus reflex by 30% by: dose for 30% inhibition; for Inhibition of the carotid sinus reflex by 50% by: dose for 50% inhibition
Source text: as §1, §2, §3
The inhibition of the carotid sinus reflex brought about by the piperazinyl quinazolones occurs at lower doses than the spontaneous lowering of the blood pressure in the cat.

[2] = tested on: blood pressure and cardiac frequency of the narcotised rat; assay: Influence on the blood pressure and the cardiac frequency of the narcotised rat (Table II); assay type: in vivo; conditions: iv, i/v, read-out: Blood pressure lowered by 30% by mg/kg i/v
Source text: Influence on the blood pressure and the cardiac frequency of the
blood pressure and the cardiac frequency of the narcosed rate and also on […]

[3] = tested on: hypertensive effect of 1-adrenalin; assay: 50% inhibition of hypertensive effect of 0.001 mg/kg i/v 1-adrenalin on the despinalised rat (Table II); assay type: in vivo; conditions: iv, read-out: 50% inhibition of hypertensive effect after i/v dose of Adrenalin by mg/kg i/v
Procedure: (§4) also on the hypertensive effect of 0.001 mg/kg i/v 1-adrenalin and
(§5) blood pressure and the cardiac frequency of the narcosed rate and also on
(§6) the hypertensive effect of 0.001 mg/kg i.v. 1-adrenaline and noradrenaline
(§7) on the despinalised rat. The mean lethal doses for the mouse are also

[4] = tested on: hypertensive effect of noradrenalin; assay: 50% inhibition of hypertensive effect of 0.001 mg/kg i/v noradrenalin on the despinalised rat (Table II); assay type: in vivo; conditions: iv, read-out: 50% inhibition of hypertensive effect after i/v dose of Noradrenalin by mg/kg i/v
Procedure: as §4, §5, §6, §7

[5] = LD50 (mean lethal dose) on the mouse (Table II); conditions: in vivo
Source text: as §7

mouse [6] = assay: Mice falling from a rotating bar (Table III, a); assay type: in vivo; conditions: ip, read-out: a PD50 mg/kg i.p.
Source text: The central damping actions of the piperazinyl quinazolones on the mouse can be seen from Table III.
a = dose at which 50% of the mice fall from a rotating bar;

mouse [7] = assay: Inhibition of spontaneous motility, sedation, muscular relaxation, loss of grip on horizontal wire mesh in mice (Table III, b); assay type: in vivo; conditions: po, dose at which an average of 50% of the mice display symptoms, read-out: b SD50 mg/kg oral
[8] = tested on: running activity of mice pre-treated with α-amphetamine sulphate; assay: Inhibition of running activity of mice pre-treated with α-amphetamine sulphate (Table III, c); assay type: in vivo; conditions: Mus musculus, ip, 3 h, 5 mg/kg α-amphetamine sulphate, 180 minutes; for inhibition in vivo at 25 mg/kg: 25mg/kg i/p, read-out: c % inhibition of motility in the treadwheel by 25mg/kg i/p
[9] = tested on: duration of sleep of mice under hexobarbital; assay: Prolongation of hexobarbital sleep in mice (Table III, d); assay type: in vivo; conditions: Mus musculus, ip; 15 mg/kg i.p.; 75 mg/kg hexobarbital; read-out: d % prolongation of sleep under hexebarbital by 15 mg/kg i.p.
Procedure: d = percentage prolongation of the duration of sleep of mice which had received 75 mg/kg. of hexobarbital, reckoned on the duration of the sleep of control animals.

[10] = tested on: defence reaction after the thermal stimulation of the tail of the mouse; assay: Analgesic effect on the mouse: delay in defence reaction after thermal stimulation of the tail (Table IV); assay type: in vivo; conditions: po; mouse; per os; 25% delay; read-out: Delay in the defence reaction after the thermal stimulation of the tail of the mouse by 25% by mg/kg per os
Source text: From Table IV below one can see the analgesic action, measured in terms of the delayed reaction during the thermal irritation of the mouse tail. The analgesically effective doses are also below those which reduce the motor behaviour, that is to say the normal movement processes (cf. Table III).
Analgesic effect on the mouse
Delay in the defence reaction after
the thermal stimulation of the tail

[11] = tested on: systolic and diastolic blood pressure; assay: Orientating clinical test in patients (FIGS. 1 and 2); assay type: in vivo, 7 female and 1 male patient
[12] = German Published patent application No. 1,231,705 and 1,249,281; cited from earlier work
[13] = 10 and 20 mg per os, 7 female and 1 male patient

With `COc1cc2nc(CCN3CCN(c4ccccc4OC)CC3)[nH]c(=O)c2cc1OC` [Example 6, 2-(2-(1-(2-methoxyphenyl)piperazinyl-4)ethyl)-6,7-dimethoxy-4(3H)-quinazolone] as the compound, how does the “Blood pressure lowered by 30% by” value [1] read?
The value was 0.07.

And the “Blood pressure lowered by 50% by” value [1]?
Its value is 0.61.

What about the “Inhibition of the carotid sinus reflex by 30% by” value (carotid sinus reflex) of the same compound?
The value was 0.12.

And the “Inhibition of the carotid sinus reflex by 50% by” value (carotid sinus reflex)?
Its value is 0.35.

What about the ED30 [2] of the same compound?
The ED30 was 0.35 mg/kg.

What about the ED50 [3] of the same compound?
Its ED50 is 0.036 mg/kg.

And the ED50 [4]?
Its ED50 is > 2.5 mg/kg.

What about the LD50 [5] of the same compound?
The LD50 was 600 mg/kg.

What about the ED50 (mouse [6]) of the same compound?
Its ED50 is 34 mg/kg.

What about the ED50 (mouse [7]) of the same compound?
Its ED50 is 40 mg/kg.

And the inhibition in vivo at 12 mg/kg ([8]; 12mg/kg i/p, read-out: c % inhibition of motility in the treadwheel by 12mg/kg i/p)?
The inhibition in vivo at 12 mg/kg was 19%.

What about the inhibition in vivo at 25 mg/kg [8] of the same compound?
Its inhibition in vivo at 25 mg/kg is 28%.

And the change in vivo at 15 mg/kg [9]?
The change in vivo at 15 mg/kg was 79%.

What about the ED25 [10] of the same compound?
Its ED25 is 1.5 mg/kg.

And the “effect on the sensorium” value [11, 13]?
The value was “no effect on the sensorium”.

What about the “lowering of the diastolic blood pressure” value [11, 13] of the same compound?
Its value is “statistically significant lowering”.

What about the “lowering of the systolic blood pressure” value [11, 13] of the same compound?
Its value is “statistically significant lowering”.

And the tolerance [11, 13]?
The tolerance was “very good tolerance”.

What about the “difference in the action of 10 and 20 mg.” value ([11]; 10 vs 20 mg, FIGS. 1 and 2) of the same compound?
Its value is “statistically confirmed”.

What about the “dose dependence of the lowering of the blood pressure” value ([11]; mean initial blood pressure 171.9 mm Hg systolic, 95.3 mm Hg diastolic, FIGS. 1 and 2) of the same compound?
The value was “dependent upon the dose”.

With `CCOc1ccc2nc(CN(C)C)n(C)c(=O)c2c1` [2-dimethylaminomethyl-3-methyl-6-ethoxyquinazolone-4] as the compound, how does the “analgesic action compared with 4-dimethylamino-1-phenyl-2,3-dimethylpyrazolone-5” value [12] read?
The value was “comparable”.

Which “Blood pressure lowered by 30% by” value [1] does the source give for `COc1cc2nc(CCN3CCN(c4ccccc4F)CC3)[nH]c(=O)c2cc1OC` [Example 14, 2-(2-(1-(2-fluorophenyl)piperazinyl-4)ethyl)-6,7-dimethoxy-4(3H)-quinazolone] here?
Its value is 0.9.

And the “Blood pressure lowered by 50% by” value [1]?
Its value is > 1.6.

And the “Inhibition of the carotid sinus reflex by 30% by” value (carotid sinus reflex)?
Its value is 0.04.

And the “Inhibition of the carotid sinus reflex by 50% by” value (carotid sinus reflex)?
The value was 0.15.

And the ED30 [2]?
The ED30 was 0.18 mg/kg.

And the ED50 [3]?
Its ED50 is 0.058 mg/kg.

What about the ED50 [4] of the same compound?
Its ED50 is > 2.5 mg/kg.

What about the LD50 [5] of the same compound?
The LD50 was 150 mg/kg.

And the ED50 (mouse [6])?
The ED50 was 61 mg/kg.

What about the ED50 (mouse [7]) of the same compound?
Its ED50 is 180 mg/kg.

And the inhibition in vivo at 25 mg/kg [8]?
The inhibition in vivo at 25 mg/kg was 1%.

And the change in vivo at 15 mg/kg [9]?
Its change in vivo at 15 mg/kg is 68%.

And the ED25 [10]?
Its ED25 is 2 mg/kg.
